The text below walks through data of ChEMBL document CHEMBL3507680, “University of Dundee, Gates Library screen for HepG2 cell viability”.

Molecules are shown by their SMILES.

The nature of the data set: Human HepG2 cell viability assay in 384 well format. In kind it is toxicity, cell-based. Also noted: dose 125 nL, time 70.5 hour; cytotoxicity at 70.5 h: concentration not given beside the values. To be noted: HepG2 cells, read-out: Inhibition.
For the compound `Cc1cc(C2CCC2)nc(N(C)Cc2cc(-c3ccccn3)no2)n1`, the cytotoxicity at 70.5 h is -6.04%.
Regarding `COc1ccc(CN2CCCC2)cc1Oc1cccc(C#N)n1`, the cytotoxicity at 70.5 h is -2.11%.
To `Cc1cc2nc(-c3ccccc3)cc(NCC3CCS(=O)(=O)C3)n2n1` (centres undefined) belongs 8.05%; to `COc1ccc(C(C(=O)O)N2CCC(Cn3cccn3)CC2)c(OC)n1` (centres undefined), 15.1%; to `Cc1oc(-c2cc(F)cc(F)c2)nc1CN1C[C@@H](C)NC[C@@H]1C`, -11.7%.
To `Cc1ncc(C(=O)N2CC[C@@]3(O)CCN(C4CCCCC4)C[C@H]3C2)cn1` belongs -7.37%.
As to `CC(C)c1cncnc1N1CC[C@H](N2CCOCC2)[C@H](CCCO)C1`, the cytotoxicity at 70.5 h was -9.63%.
To `CC(C)Cc1cc(C(=O)NCC(O)CN2CCCCCC2)on1` (centres undefined) belongs -3.2%; to `CC[C@@]1(O)CCN(C(=O)CN(C)Cc2ccc(F)cc2)C[C@H]1O`, 17.3%; to `COc1ccc(-c2nc3c([nH]2)CCNC3C(=O)O)c2ccc(C)nc12` (centres undefined), 12.4%.
As for `CN1CCCC1CCn1ccnc1-c1nc2ccccc2[nH]1` (centres undefined), the figure is -0.748%.
As for `CCNc1nc(C)c(C(=O)N2CCN(c3ncccc3C)CC2)s1`, the figure is -4.75%; as for `O=S(=O)(NCCc1nc(-c2cccnc2)n[nH]1)NCc1ccccc1`, -7.05%.
Regarding `N[C@H]1CN(S(=O)(=O)c2cccnc2)C[C@@H]1C1CC1`, the cytotoxicity at 70.5 h was -4.49%.
With `Cc1nc(C)c(C)c(NCCSCc2[nH]cnc2C)n1`, the cytotoxicity at 70.5 h is -5.17%.
As for `COc1ccc(CN2CCCn3cncc3C2)cc1Cn1cncn1`, the figure is -8.65%; as for `Cc1ccc(NC2(C(=O)NCCCN)CCCC2)cc1`, -8.06%; as for `OC1(CN2CCCC2)COCCN(c2ncnc3[nH]ccc23)C1` (centres undefined), -3.06%.
For `CN(CC1CCCO1)c1nc(-c2cccnc2)nc2c1CCNCC2` (centres undefined), the cytotoxicity at 70.5 h is -10.6%.
To `CN(Cc1n[nH]c(=O)n1Cc1ccccc1F)S(C)(=O)=O` belongs 5.65%; to `COc1ccccc1Oc1ncccc1CNC(=O)C(C)N1CCCC1` (centres undefined), -1.98%.
As for `CC(=O)N1CCN(CC2CCOc3ccccc3C2)CC1` (centres undefined), the figure is -1.42%; as for `CN(C)CCNC(=O)c1cnc2c(c1)nc(-c1ccccc1Cl)n2C`, -10.7%; as for `O=C(O)C(c1ccc2c(c1)OCCO2)N1CCCCCC1` (centres undefined), -7.26%.
As for `CC(C(=O)N1CCCC1)N1CCC(c2nccn2CC2CCC2)CC1` (centres undefined), the figure is -4.27%.
As to `O=C(N[C@@H]1CCNC[C@H]1O)c1ccc(F)c(Cl)c1`, the cytotoxicity at 70.5 h is -7.9%.
As for `Cc1cc(C)nc(N2Cc3cnn(Cc4ccc(F)cc4)c3C2)n1`, the figure is 13.2%; as for `Cc1noc(C)c1CN1C(=O)[C@H]2CC[C@@H]1CN(Cc1cccnc1N)C2`, 16.1%; as for `Cn1c(CN2CCCC2)nnc1C1CCCN(C(=O)C2CCOCC2)C1` (centres undefined), -3.01%.
To `CN(C)S(=O)(=O)N1CCN(C(=O)c2ccc3ccn(C)c3c2)CC1` belongs -7.35%; to `CC(=O)N1CCCN(c2nccc(-c3cn(C)nc3C)n2)CC1`, -2.77%.
To `O=C(c1ccc2c(c1)CCC2)N1C[C@@H](CN2CCOCC2)[C@@H](CO)C1` belongs -6.01%.
On to `O=C(CCc1ccc(O)cc1)N1CCC(Cc2ccc(CO)cc2)C1` (centres undefined), for which the cytotoxicity at 70.5 h is -9.62%.
With `CSCC(=O)N1CCCN(c2ccccc2C)CC1`, the cytotoxicity at 70.5 h was -4.65%.
To `CNc1nc(C(=O)N2CCCC(c3nccn3CC3CCC3)C2)cs1` (centres undefined) belongs 8.97%; to `CCN(CCn1cccn1)Cc1nc(-c2cccs2)oc1C`, -9.82%.
To `Cc1cnn(CCC(=O)N2C[C@H]3CC[C@@H]2CN(CC(=O)N(C)C)C3)c1` belongs -3.83%; to `FC(F)(F)c1nc(NC2CCCC2)c2ccccc2n1`, -12.8%; to `CCCNCC1(O)CCCN(Cc2cccc(C)c2)C1=O` (centres undefined), -3.03%.
To `COc1cccc2c1OCC(C(=O)NC1CCN(S(C)(=O)=O)CC1)C2` (centres undefined) belongs 14%; to `Cc1nc(Cn2nc(C3CCNCC3)n(Cc3ccccc3)c2=O)no1`, 6.65%; to `Cc1cc(F)ccc1CN1CCC(O)(CN2CCCCC2)C1` (centres undefined), -1.38%.
As for `CC(C)N1CCCC2(CCN(C(=O)CCCn3cncn3)C2)C1=O` (centres undefined), the cytotoxicity at 70.5 h is -4.98%.
Consider `Cc1nc(C)c(CC(=O)N2C[C@H]3CC[C@@H]2CN(C(=O)N(C)C)C3)c(=O)[nH]1`, for which the cytotoxicity at 70.5 h came to 15.9%.
`COCc1noc(-c2ccc(N(C)Cc3cc(C)no3)nc2)n1`: the cytotoxicity at 70.5 h is -6.05%.
As for `O=C(c1ccccn1)N1C[C@@H]2CC[C@H](C1)N(C(=O)CCc1ccsc1)C2`, the figure is -10.8%; as for `CCCN1CCCn2nc(CNS(=O)(=O)c3ccc(C)cc3)cc2C1`, -6.85%.
Take `CC(C)CN1CCc2[nH]cnc2C12CCN(C(=O)c1cccnc1)CC2`: the cytotoxicity at 70.5 h was found to be 12.4%.
To `Cn1cc(CNc2ncnc3c2CCN(Cc2ccsc2)CC3)cn1` belongs 0.199%; to `NC(=O)CN1CCC(C(=O)N2CCCC(OCc3cccnc3)C2)CC1` (centres undefined), -11%; to `CC(C)SCC(=O)N1CCc2c(nc(N(C)C)nc2N(C)C)C1`, -9.5%.
As for `COc1ccccc1OCc1cc(C(=O)N2CCN[C@H](C)C2)n[nH]1`, the cytotoxicity at 70.5 h was -5.99%.
As for `Cc1nn2c(N3CCC(O)CC3)cc(-c3ccccc3)nc2c1C`, the figure is -3.29%.
As for `CCn1c(N)nc2cc(C(=O)NCc3ccccc3Cl)cnc21`, the figure is 0.502%; as for `CCOCCn1c(=O)[nH]c2cc(C(=O)N(C)Cc3nc(C)cs3)ccc21`, -12.4%.
As for `CCc1cnc(N)nc1NCCN1CCCCC1`, the figure is 23%; as for `O=C(c1ccc(C2CCCO2)s1)N1CCN(c2ccccc2F)CC1` (centres undefined), -4.35%.
As for `CC(C)c1cc(N2CCC(N)CC2)n2nccc2n1`, the cytotoxicity at 70.5 h was -4%.
As for `O=C(CO)N1C[C@H]2CC[C@@H]1CN(C1Cc3ccccc3C1)C2`, the figure is -8.88%; as for `Cc1ncc(C)c(N2CCCC(CO)(Cc3cccc(Cl)c3)C2)n1` (centres undefined), 1.75%.
As for `CNC(=O)c1ccc(OC2CCN(S(C)(=O)=O)CC2)c(Cl)c1`, the figure is 3.83%; as for `CCn1ncnc1C(C)NC(=O)C1CCN(C(C)C)CC1` (centres undefined), -8.56%.
Regarding `Cc1cc(C)c2nc(CN3CCOC(CCO)C3)cc(O)c2c1` (centres undefined), the cytotoxicity at 70.5 h was -4.44%.
To `COc1ccc(C2CC(=O)Nc3c2nc2n3CCCC2)cc1O` (centres undefined) belongs -15.2%.
To `O=C(c1cccc(=O)[nH]1)N(Cc1ccsc1)CC1CCCO1` (centres undefined) belongs 5.57%.
Consider `Cc1ccc(S(=O)(=O)NC2CC2)cc1C`, for which the cytotoxicity at 70.5 h was -5.86%.
As for `O=C(c1ccncc1)N1C[C@@H]2CC[C@H](C1)N(C(=O)N1CCOCC1)C2`, the figure is -7.89%; as for `CCCc1cc(CNC(=O)C2CCOc3ccccc3C2)on1` (centres undefined), 2.98%; as for `Cc1nnc(CCNC2CCN(c3ncnc4c(C)csc34)CC2)s1`, -2.85%.
